In patent US8394355B2, “Use of UTP for the diagnosis of stenoses and other conditions of restricted blood flow” (P2 science Aps, priority 2009, dated 2013):
Where “and” joins values, the source holds several entries; their conditions need not be identical. Equal entries are not always repeated.

What was measured:
[1] = test system: coronary arteries in humans with coronary artery disease; test: FFR during continuous intracoronary infusion via guiding catheter (Example 2); type: in vivo; parameters: key to lowest FFR level / difference in FFR between adenosine and UTP / FFR / FFR Mean: FFR = Pd/Pa (distal/proximal coronary pressure ratio); details: for adverse effects during IC continuous infusion / % of patients with FFR ≦ 0.75 / % of patients with FFR ≦ 0.8: guiding catheter study; for % of patients with FFR ≦ 0.75 / % of patients with FFR ≦ 0.8: 240 μg/min (n = 23); for lowest FFR level: lowest mean over the dose response curve, ± 2SEM, P<0.05
Procedure: The study was performed in 23 patients undergoing elective coronary arteriography (CAG) due to repetitive episodes of typical ischemic chest pain or in patients with recent Non-ST Elevated Myocardial Infarction (>2 days from entry into study). In eligible patients with uni- or multivessel coronary artery disease, lesions with stenosis of at least 50% of their diameter and that were thought to require PCI on the basis of angiographic appearance and clinical data were identified.
In the first part of the experiment, FFR and Coronary Flow (velocity, CFR) were measured after the induction of coronary hyperemia by a continuous intracoronary infusion of UTP (Jena Bioscience GmbH, Germany) and adenosine in random order in a guide catheter (5F catheter, Cordis Corp.). Two UTP doses of 240 and 360 μg/min were tested. UTP was prepared by dissolving 100 mg of UTP trisalt (Sigma Aldrich) in 50 ml isotonic NaCl. Of this 50 ml solution, 40 ml was filter sterilized and added to sterile NaCl solution to a final volume of 500 ml, providing a 0.16 mg/ml concentration. 8-10 50 ml syringes of this solution can be prepared (2 syringes per FFR study). 3 ml/min=480 μg/min=0.9 μmol/min. Subjects thus received either 1.5 ml/min of UTP infusion or 2.25 mL/min of UTP infusion for a total of 3 minutes each. Patients also received adenosine (Sigma Aldrich) in the same eqipotent concentration.
All measurements were performed on at least 2 separate occasions to achieve a reproducible result with a mean value calculated. After each measurement, care was taken that APV returned to baseline before the administration of the next dose. For all measurements using both drugs and both routes of administration, changes in heart rate, blood pressure, and ECG were recorded.
In the second part of the experiment, a full dose response curve was generated for a gradual incremental increase in continuous UTP infusion while both CFR and FFR were measured simultaneously prior to percutaneous coronary intervention (PCI). Hyperemia was induced at 80 μg/min of continuous intracoronary UTP and adenosine, and the flow reserve values were compared (Table 1).
In the third part of the experiment, both CFR and FFR were measured simultaneously after percutaneous coronary intervention (PCI). Hyperemia was induced by either 240 or 360 μg/min of continuous intracoronary UTP and equipotent adenosine, and the flow reserve values were in some patients compared with the hyperemic response of a complete, proximal coronary occlusion for 30 s.
FFR is defined as the ratio of hyperemic flow in a stenotic artery to the hyperemic flow in the same artery if there was no stenosis present. FFR therefore expresses maximum hyperemic blood flow in a stenotic vessel as a fraction of its normal value. FFR can be calculated from intracoronary pressure measurements obtained during maximal hyperemia by the following equation: FFR═Pd−Pv/Pa−Pv→Pd/Pa, where Pa is the mean proximal coronary pressure (mean aortic pressure), Pd is the mean distal coronary pressure, and Pv is the mean central venous pressure. The coronary flow (velocity) reserve is the ratio of maximum to baseline hyperemic coronary flow velocity and is used as a surrogate for CFR. Using the Volcano Combomap®, APV throughout the cardiac phase was measured and CFR calculated from APV(hyperemia)/APV(basal).

[2] = test system: pulmonary and systemic circulation of healthy female pigs; test: Systemic (central intravenous) nucleotide infusion in pigs, hemodynamic response; type: in vivo; details: for increase in CO (cardiac output): FIG. 7b; for increase in HR from baseline: FIG. 7c; for decrease in SV (stroke volume): FIG. 7d; for MAP lowered by, from baseline: p<0.05, FIG. 7a; for decrease in PVR (pulmonary vascular resistance) from baseline: pig, in vivo
Procedure: In the present study, the hemodynamic response in the pulmonary and systemic circulation was tested, as well as the effect of central intravenous infusions of ATP, ADP, ADO, and UTP on the heart.
Infusion rates were aimed at exerting a pronounced systemic response in the lowering of arterial blood pressure, but avoiding a total circulatory collapse.
Methods: 10 healthy female pigs (Department of Experimental Medicine and Surgery, University of Copenhagen, Denmark) bred as a combination of the Danish Landrace (⅓) and Yorkshire (⅔), with a medium weight of 41±2 kg were investigated.
Mean arterial blood pressure (MAP) was obtained from the catheter in arcus aorta with the transducer (Pressure Monitoring Kit, Baxter, Deerfield, Ill., USA) positioned at the level of the heart. The left femoral artery was subsequently exposed and an ultrasound doppler probe attached for peripheral femoral artery flow measurements (CM-4000, Cardiomed, Norway). MAP, HR and peripheral flow were monitored and data continuously collected using a PowerLab system (Adinstruments, Australia). Cardiac Output (CO) was determined in triplicates by thermodilution, following an injection of 10 ml of cooled saline solution. Blood samples were withdrawn from catheters in aorta and the right atrium at baseline and at steady state when MAP had decreased maximally or by ˜50%. Calculated variables were: stroke volume of the heart (SV=CO/HR), pulmonary vascular resistance (PVR=(MPAP−PCWP)/CO), systemic vascular resistance (SVR=(MAP−MRAP)/CO), leg vascular conductance (LVC=LBF/(MAP−MRAP)), and arterial (aorta) and mixed venous (pulmonary artery) oxygen content (Hb*1.34*O2 saturation). In the calculation of LVC, MRAP was used as an estimate of mean femoral venous pressure (MFVP), as MRAP was found in a series of measurements to equal MFVP, as estimated in 10 supine pigs. As a potential estimate for myocardial oxygen demand the rate pressure product (RPP=MAP*HR) was also calculated.
Drug infusions: Each animal was administered the nucleotides ATP, UTP, ADP (Sigma, St. Louis, Mo., USA) and ADO (Item Development AB, Stocksund, Sweden), through the internal jugular vein in the right atrium, in random order following blinded allocation. The nucleotides and ADO were prepared by dissolving in saline so as to achieve the target concentration of ATP (40±0.5 μmol/min), ADP (43±8 μmol/min), UTP (up to 1,600 μmol/min), and ADO (73±7 μmol/min). The nucleotides were infused in increasing dosages at 2 min intervals aiming at reducing MAP by maximally ˜50%. Thereafter, that specific infusion rate was maintained for ˜3-5 min. After each intervention the animal rested for ˜30 min, allowing resting cardiovascular variables to be reestablished. Thereafter, a new cycle of nucleotide infusion was administered. In the present study we aimed to allow the drugs to reduce MAP by ˜50%, but without inducing a hemodynamic and circulatory collapse, to simulate a pronounced state of systemic vasodilation, as may be observed for instance in a shock condition.

[3] = mean of six patients, 80 μg/min

Question: `O=c1ccn([C@@H]2O[C@H](COP(=O)(O)OP(=O)(O)OP(=O)(O)O)C(O)[C@@H]2O)c(=O)[nH]1` (some centres unmarked) [UTP, Uridine 5-triphosphate] was tested. Which “FFR in comparison to adenosine infusion” value ([1]; all 23 patients, IC 240 μg/min, p=0.003, FIG. 1) did it give?
Answer: significantly decreased

Question: What about the “time to induction of maximal hyperemia” value ([1]; all IC continuous infusion rates, versus adenosine) of the same compound?
Answer: shorter

Question: What about the “optimal dose for achieving maximal coronary hyperemia” value ([1]; guide catheter method) of the same compound?
Answer: 80 to 400 µg/min

Question: And the “adverse effects during IC continuous infusion” value [1]?
Answer: None of the UTP-treated patients in the current trial had chest pain, dyspnea, second or 3 degree A-V block or changes in systemic blood pressure and heart rate

Question: What about the “% of patients with FFR ≦ 0.75” value [1] of the same compound?
Answer: 47%

Question: And the “% of patients with FFR ≦ 0.8” value [1]?
Answer: 65%

Question: What about the FFR ([1]; individual patients (row = patient no.), IC continuous infusion 80 μg/min, guide catheter) of the same compound?
Answer: 0.73 and 0.79 and 0.88 and 0.56

Question: And the FFR ([1]; individual patients, 160 μg/min)?
Answer: 0.90 and 0.73 and 0.79 and 0.86 and 0.56

Question: What about the FFR ([1]; individual patients, 240 μg/min) of the same compound?
Answer: 0.89 (2×) and 0.73 and 0.79 and 0.87 and 0.55

Question: What about the FFR ([1]; individual patients, 320 μg/min) of the same compound?
Answer: 0.90 and 0.89 and 0.72 and 0.77 and 0.86 and 0.56

Question: And the FFR ([1]; individual patients, 400 μg/min)?
Answer: 0.90 and 0.92 and 0.56

Question: And the “lowest FFR level” value [1]?
Answer: 0.74±0.13

Question: And the “FFR Mean” value [1, 3]?
Answer: 0.74

Question: What about the “FFR Mean” value ([1]; mean, 160 μg/min) of the same compound?
Answer: 0.77

Question: And the “FFR Mean” value ([1]; mean, 240 μg/min)?
Answer: 0.79

Question: What about the “FFR Mean” value ([1]; mean, 320 μg/min) of the same compound?
Answer: 0.78

Question: And the “FFR Mean” value ([1]; mean, 400 μg/min)?
Answer: 0.79

Question: And the “difference in FFR between adenosine and UTP” value ([1]; standard deviation of 0.15-0.17, p=0.003)?
Answer: 0.05

Question: What about the “increase in CO (cardiac output)” value [2] of the same compound?
Answer: 72.5±15.2% and ~70%

Question: And the “increase in HR from baseline” value [2]?
Answer: 51.1±9.0%

Question: And the “decrease in SV (stroke volume)” value [2]?
Answer: did not significantly change SV

Question: What about the “arrhythmias (missed beats, VT, SVT or AV nodal block)” value ([2]; intravenous systemic infusion) of the same compound?
Answer: does not produce arrhythmias

Question: What about the “infusion rate giving the ~35% reduction in MAP” value ([2]; maximal MAP reduction obtainable with UTP) of the same compound?
Answer: 86.5 ± 18.2 µmol/min

Question: And the “decrease in SVR (systemic vascular resistance) from baseline” value ([2]; p<0.05)?
Answer: 62.9±2.6%

Question: What about the “increase in LVC (leg vascular conductance) from baseline” value (“increase in LVC” for short) ([2]; p<0.05) of the same compound?
Answer: 150.0±17.1% and ~150%

Question: And the “increase in LBF (leg blood flow)” value ([2]; p<0.05, FIG. 6c)?
Answer: 53.7±17.8% and ~50%

Question: And the “MAP lowered by, from baseline” value [2]?
Answer: 35.0±3.2%

Question: What about the “decrease in PVR (pulmonary vascular resistance) from baseline” value [2] of the same compound?
Answer: did not significantly alter

Question: And the “decrease in rate pressure product” value ([2]; tendency)?
Answer: ~10%

Question: How did the “adverse effects during IC continuous infusion” value [1] turn out when `Nc1ncnc2c1ncn2[C@@H]1O[C@H](CO)[C@@H](O)[C@H]1O` [adenosine] was run?
Answer: most patients felt uncomfortable chest pain and 2 patients had 3 degree A-V block

Question: What about the “% of patients with FFR ≦ 0.75” value [1] of the same compound?
Answer: 39%

Question: What about the “% of patients with FFR ≦ 0.8” value [1] of the same compound?
Answer: 43%

Question: What about the FFR ([1]; individual patients (row = patient no.), IC continuous infusion 80 μg/min, guide catheter, listed as ADO) of the same compound?
Answer: 0.83 and 0.95 and 0.76 and 0.88

Question: What about the FFR ([1]; individual patients, 160 μg/min, listed as ADO) of the same compound?
Answer: 0.80 and 0.95 and 0.60 and 0.96 and 0.75

Question: What about the FFR ([1]; individual patients, 240 μg/min, listed as ADO) of the same compound?
Answer: 0.81 and 0.94 and 0.60 and 0.87 and 0.91 and 0.71

Question: What about the FFR ([1]; individual patients, 320 μg/min, listed as ADO) of the same compound?
Answer: 0.79 and 0.96 and 0.54 and 1.02 and 0.89 and 0.70

Question: And the FFR ([1]; individual patients, 400 μg/min, listed as ADO)?
Answer: 0.56 and 1.01 and 0.89

Question: What about the “lowest FFR level” value [1] of the same compound?
Answer: 0.81±0.11

Question: And the “FFR Mean” value [1, 3]?
Answer: 0.86

Question: And the “FFR Mean” value ([1]; mean, 160 μg/min)?
Answer: 0.81

Question: And the “FFR Mean” value ([1]; mean, 240 μg/min)?
Answer: 0.81

Question: What about the “FFR Mean” value ([1]; mean, 320 μg/min) of the same compound?
Answer: 0.82

Question: What about the “FFR Mean” value ([1]; mean, 400 μg/min) of the same compound?
Answer: 0.82

Question: And the “increase in CO (cardiac output)” value [2]?
Answer: 31.4±9.9%

Question: What about the “increase in HR from baseline” value [2] of the same compound?
Answer: did not increase

Question: What about the “decrease in SV (stroke volume)” value [2] of the same compound?
Answer: did not significantly change SV

Question: What about the “decrease in LBF (leg blood flow) from baseline” value ([2]; p<0.05) of the same compound?
Answer: 19.4±10.7%

Question: And the “decrease in SVR (systemic vascular resistance) from baseline” value ([2]; p<0.05)?
Answer: 59.0±3.0%

Question: And the “increase in LVC” value ([2]; p<0.05)?
Answer: ~50%

Question: What about the “MAP lowered by, from baseline” value [2] of the same compound?
Answer: 47.2±1.5%

Question: And the “increase in LVC” value ([2]; p<0.05, listed as ADO)?
Answer: 56.4±12.9%

Question: And the “decrease in PVR (pulmonary vascular resistance) from baseline” value [2]?
Answer: 34.3±2.6%

Question: And the “infusion rate at target MAP” value ([2]; target ~50% reduction in baseline MAP, right atrium infusion)?
Answer: 72.7 ± 6.6 µmol/min
